Measurements taken from US20110224182A1, “SALTS OF (3-0-(3',3'-[…]) BETULINIC ACID AND SOLID STATE FORMS THEREOF” (Myriad Pharmaceuticals, Incorporated, priority 2007, published 2011).
≈ marks a conversion by molar mass, not a printed value. Read-outs that look alike come from different tables or passages of the source.

Experiments:
[1] = In vivo pharmacokinetic studies (Method H), plasma levels by LC-MS/MS; set-up: species or system male Sprague-Dawley rats; conditions: rat; for Mean plasma concentration: as free drug
Procedure: Method H—In Vivo Pharmacokinetic Studies
In vivo experiments were conducted in male Sprague-Dawley rats having a body mass of 225 g to 275 g with an appropriate cannula surgically inserted. Rats were supplied food and water ad libitum until 12 hours before dosing when food was removed. Food was withheld until four hours post-dosing. Water was available ad libitum. Each of group of rats consisted of 3 rats.
Dosing solutions were prepared the same day as dose administration. […] The administered dose of each salt was 1 mg/kg for intravenous administration and 10 mg/kg for oral gavage. Formulations for intravenous administration were filtered after preparation. Concentrations of respective dosing solutions were as depicted in Table 1 below.
Sampling was performed at predose, 2, 5, 15, and 30 minutes, 1, 2, 4, and 8 hours post dose. Blood samples were collected, placed into chilled tubes containing sodium heparin, and kept chilled until centrifuged at 4° C. at 13,000 rpm for 5 minutes. Plasma was separated and stored at −60° C. to −80° C. until analyzed.
Plasma levels of the compounds were determined by LC-MS/MS. Quantification of the compounds in plasma was performed against a calibration curve generated by serial dilution of a test article DMSO stock solution into blank heparinized rat plasma (50, 100, 200, 500, 1,000, 2,000, 5,000, and 10,000 ng/mL final concentrations of free drug). Quality control samples were prepared in the same fashion (250, 1,000, and 5,000 ng/mL final concentrations of free drug). The standard curve and quality control DMSO stock solutions were derived from independent weightings.
Plasma concentrations versus time data are plotted in FIGS. 26 through 37.
All data are expressed as ng/mL of the free drug. Samples that were below the limit of quantification (“bloq”) were assigned a value of zero for the mean concentration calculations.

[2] = Solubility (Method B): solvent added in portions until a clear solution is obtained; assay type: physicochemical; conditions: ambient temperature
Procedure: Method B-Solubility Measurement of the water solubility of the salts of this invention is accomplished by using methods well known to those skilled in the art. Specifically, to a weighed amount of DSB (+)-[…], DSB choline […], DSB diethanolamine […], or DSB diethylamine […], a solvent is added in small portions until a clear solution is obtained. The total volume of the solution is measured. The solubility of the particular DSB salt, in mg/mL, is calculated by dividing the weight of the salt (in mg), by the volume of the solution (in mL).

[3] = oral gavage 10 mg/kg, 0.083 h post dose
[4] = oral gavage 10 mg/kg, 0.25 h post dose
[5] = oral gavage 10 mg/kg, 0.5 h post dose
[6] = oral gavage 10 mg/kg, 1 h post dose
[7] = oral gavage 10 mg/kg, 2 h post dose
[8] = oral gavage 10 mg/kg, 4 h post dose
[9] = oral gavage 10 mg/kg, 8 h post dose
[10] = oral gavage 10 mg/kg, relative to DSB-2 NMG intravenous

Row | Molecule | Mean plasma concentration [1, 3] [ng/mL] | Mean plasma concentration [1, 4] [ng/mL] | Mean plasma concentration [1, 5] [ng/mL] | Mean plasma concentration [1, 6] [ng/mL] | Mean plasma concentration [1, 7] [ng/mL] | Mean plasma concentration [1, 8] [ng/mL] | Mean plasma concentration [1, 9] [ng/mL] | AUC24 h ([1]; oral gavage 10 mg/kg, mean) [ng·h/mL] | Cmax ([1]; oral gavage 10 mg/kg, mean) [ng/mL] | Tmax ([1]; oral gavage 10 mg/kg, mean) [min] | % Bioavailability [1, 10] [%] | further results
1 | bis-choline salt of DSB [DSB-2 Choline] |  |  |  |  |  |  |  |  |  |  |  | % Bioavailability ([1]; in vivo, 10 mg/kg): 30.3%; AUC24 h ([1]; in vivo, po, 10 mg/kg): 20872.2 ng·h/mL
2 | C=C(C)[C@@H]1CC[C@]2(C(=O)O)CC[C@]3(C)[C@H](CC[C@@H]4[C@@]5(C)CC[C@H](OC(=O)CC(C)(C)C(=O)O)C(C)(C)[C@@H]5CC[C@]43C)[C@@H]12.OCCNCCO.OCCNCCO [DSB-2 Diethanolamine, diethanolamine disalt of DSB] | 880.7 | 5190.0 | 5743.3 | 5873.3 | 4730.0 | 1830.0 | 1149.3 | 30958.7 | 6720.0 | 72 | 44.9 | 
3 | 3-O-(3′,3′-dimethylsuccinyl)betulinic acid, bis-diethylamine salt [DSB-2 Diethylamine] | 352.7 | 4576.7 | 7420.0 | 6873.3 | 3750.0 | 1886.7 | 233.7 | 21172.3 | 7453.3 | 40.2 | 30.7 | 
4 | C=C(C)[C@@H]1CC[C@]2(C(=O)O)CC[C@]3(C)[C@H](CC[C@@H]4[C@@]5(C)CC[C@H](OC(=O)CC(C)(C)C(=O)O)C(C)(C)[C@@H]5CC[C@]43C)[C@@H]12 [DSB Free Acid, 3-O-(3′,3′-dimethylsuccinyl)betulinic acid] |  |  |  |  |  |  |  |  |  |  |  | solubility ([2]; 1-propanol, organic solvent or mixture, thermodynamic from solid, 1-propanol, read-out: Solubility in 1-propanol): 6000 µg/mL (≈ 10.3 mM); solubility ([2]; 2,2,2-trifluoroethanol, organic solvent or mixture, thermodynamic from solid, 2,2,2-trifluoroethanol, read-out: Solubility in 2,2,2-trifluoroethanol): 2500 µg/mL (≈ 4.27 mM); solubility ([2]; 2-propanol, organic solvent or mixture, thermodynamic from solid, 2-propanol, read-out: Solubility in 2-propanol): 6000 µg/mL (≈ 10.3 mM); solubility ([2]; ethanol, organic solvent or mixture, thermodynamic from solid, ethanol, read-out: Solubility in ethanol): 15000 µg/mL (≈ 25.6 mM); solubility ([2]; methanol, organic solvent or mixture, thermodynamic from solid, methanol, read-out: Solubility in methanol): 7500 µg/mL (≈ 12.8 mM); solubility ([2]; water, thermodynamic from solid, water, read-out: Solubility in water): 350 µg/mL (≈ 0.598 mM)
5 | bis-(+)-arginine salt of DSB [DSB-2 (+)-Arginine] | 2003.3 | 6796.7 | 6140.0 | 5793.3 | 4590.0 | 1615.3 | 532.3 | 24342.9 | 7093.3 | 19.8 | 35.3 | 
6 | C=C(C)[C@@H]1CC[C@]2(C(=O)O)CC[C@]3(C)[C@H](CC[C@@H]4[C@@]5(C)CC[C@H](OC(=O)CC(C)(C)C(=O)O)C(C)(C)[C@@H]5CC[C@]43C)[C@@H]12.CNC[C@H](O)[C@@H](O)[C@H](O)[C@H](O)CO.CNC[C@H](O)[C@@H](O)[C@H](O)[C@H](O)CO [DSB-2 NMG, reference compound] | 491.0 | 3706.7 | 3246.7 | 3236.7 | 1973.7 | 1662.3 | 635.7 | 18041.1 | 4480.0 | 96 | 26.2 | % Bioavailability ([1]; intravenous 1 mg/kg (reference)): 100.0%; AUC24 h ([1]; intravenous 1 mg/kg, mean): 6890.6 ng·h/mL; Cmax ([1]; intravenous 1 mg/kg, mean): 13785.9 ng/mL; Tmax ([1]; intravenous 1 mg/kg, mean): 0 min
